Patent publication US5070210A, “Novel ketenimines as intermediates for insecticides” (ICI Americas Inc., priority 1990, dated 1991)

Tests used:
Format in all cases: in vivo
[1] = system: Housefly [Musca domestica]; assay: Housefly insecticidal test; settings: μg per 25 female flies; mortality after 48 hours
Experimental: (§1) The compounds in Tables 1 and 2 above were tested for insecticidal activity using the following testing procedures. LC50 values, based on the results of these tests and calculated according to dosage-mortality curves, are expressed in Table 3.
Housefly [Musca domestica]:
Test compounds were diluted in acetone and aliquots pipetted onto the bottom of aluminum dishes. To ensure even spreading of the chemical on the bottom of the dishes, 1 ml of acetone containing 0.01% peanut oil was also added to each dish. After all solvents had evaporated, the dishes were placed in circular cardboard cages containing 25 female houseflies, 1-2 days old. The cages were covered on the bottom with cellophane and on the top with tulle netting, and each contained a sugar-water saturated cotton plug for maintenance of the flies. Mortality was recorded after 48 hours. Test levels ranged from 100 μg/25 female houseflies downward. The LC-50 value is expressed below in Table 3 under the heading "HF", in terms of μg of the test compound per 25 female flies.

[2] = system: Tobacco Budworm [Heliothis virescens (Fabricius)] eggs; assay: Tobacco budworm egg test; settings: 2-day old eggs, percent in solution
Experimental: as §1
Tobacco Budworm [Heliothis virescens (Fabricius)]:
(b). Eggs: Paper towel patches of 2-day old eggs of the tobacco budworm were dipped in acetone solutions of the test compound and placed in petri dishes containing a portion of larval rearing medium. Treated eggs were maintained at 78° F. and mortality was recorded after all control eggs had hatched and the young larvae were feeding on the media. Test concentrations ranged from 0.1% downward. The LC-50 value is expressed below in Table 3 under the heading "TBW-E" in terms of percent of the test compound in the solution.

[3] = system: Cabbage Looper [Trichoplusia ni (Hubner)]; assay: Cabbage looper insecticidal test; settings: second-instar larvae, percent in solution; 3-5 days
Experimental: as §1
Cabbage Looper [Trichoplusia ni (Hubner)]:
Test compounds were diluted in a 50-50 acetone-water solution. Cotyledons of hyzini squash (Calabacita abobrinha), approximately 1×1.5 inches, were immersed in the test solutions for 2-3 seconds and placed on a wire screen to dry. The dried leaves were placed in petri dishes containing a moistened piece of filter paper and infested with 5 second-instar cabbage looper larvae. The dishes were placed in a high humidity chamber. Mortality of the larvae was recorded 3-5 days later. Test concentrations ranged from 0.1% downward. The LC-50 value is expressed below in Table 3 under the heading "CL" in terms of percent of the test compound in solution.

Row | Structure (SMILES) | LC50, HF [1] | LC50, TBW, E (TBW-E) [2] | LC50, CL [3]
1 | CC(C)C(=Nc1ccc(Cl)c(C(F)(F)F)c1)OCc1cccc(Oc2cccc(F)c2)c1 [Compound 195] | > 100 µg | > 0.1% | 0.002%
2 | CC(C)C(=Nc1ccc(F)cc1)OCc1cccc(Oc2ccc(F)cc2)c1 [Compound 197] | > 100 µg | 0.05% | 0.0004%
3 | CC(C)C(=Nc1cccc(F)c1)OCc1cccc(Oc2ccc(F)cc2)c1 [Compound 200] | 7.5 µg | 0.1% | 0.00075%
4 | COc1cccc(N=C(OCc2cccc(Oc3ccc(F)cc3)c2)C(C)C)c1 [Compound 201] | 15 µg | > 0.1% | 0.004%
5 | CC(C)C(=Nc1ccc(F)cc1)OCc1cccc(Oc2cccc(Cl)c2)c1 [Compound 205] | 50 µg | > 0.1% | 0.004%
6 | CC(C)C(=Nc1ccc(F)cc1)OCc1cccc(Oc2ccc(F)cc2F)c1 [Compound 206] | 50 µg | > 0.1% | 0.0017%
7 | CC(C)C(=Nc1ccc(Cl)c(Cl)c1)OCc1cccc(Oc2cccc(Cl)c2)c1 [Compound 207] | > 100 µg | > 0.1% | 0.008%
8 | CC(C)C(=Nc1ccc(C#N)cc1)OCc1cccc(Oc2cccc(Cl)c2)c1 [Compound 208] | 27 µg | > 0.1% | 0.0035%
9 | CCC(C)C(=Nc1ccc(Cl)c(Cl)c1)OCc1cccc(Oc2ccc(F)cc2)c1 (stereo not drawn) [Compound 211] | 61 µg | > 0.1% | 0.0017%
10 | CC(C)C(=Nc1ccc(F)c(F)c1)OCc1cccc(Oc2ccc(C#N)cc2)c1 [Compound 212] | 20 µg | 0.045% | 0.0005%
11 | CC(C)C(=Nc1ccc(Cl)c(Cl)c1)OCc1cccc(Oc2ccc(F)cc2F)c1 [Compound 213] | > 100 µg | > 0.1% | 0.00075%
12 | CC(C)C(=Nc1ccc(F)c(F)c1)OCc1cccc(Oc2ccc(F)cc2F)c1 [Compound 214] | 19 µg | 0.04% | 0.0003%
13 | CC(C)C(=Nc1ccc(F)c(Cl)c1)OCc1cccc(Oc2cc(F)cc(F)c2)c1 [Compound 215] | 75 µg | > 0.1% | 0.00075%
14 | CC(C)C(=Nc1ccc(Cl)c(Cl)c1)OCc1cccc(Oc2ccc(F)c(F)c2)c1 [Compound 218] | 25 µg | 0.025% | 0.0003%
15 | COc1ccc(Oc2cccc(COC(=Nc3ccc(F)cc3)C(C)C)c2)cc1 [Compound 220] | 85 µg | > 0.1% | 0.007%
16 | COc1ccc(Oc2cccc(COC(=Nc3ccc(F)c(Cl)c3)C(C)C)c2)cc1 [Compound 221] | 62 µg | > 0.1% | 0.0027%
17 | CC(C)C(=Nc1ccc(C#N)c(F)c1)OCc1cccc(Oc2ccc(F)cc2)c1 [Compound 222] | 32 µg | > 0.1% | 0.0015%
18 | COc1ccc(Oc2cccc(COC(=Nc3ccc(Cl)c(Cl)c3)C(C)C)c2)cc1 [Compound 223] | 43 µg | > 0.1% | 0.008%
19 | CC(C)(Cl)C(=Nc1ccc(F)c(Cl)c1)OCc1cccc(Oc2ccc(F)cc2)c1 [Compound 224] | > 100 µg | > 0.1% | 0.001%

Row | Structure (SMILES) | LC50, HF [1] | LC50, TBW, E (TBW-E) [2] | LC50, CL [3]
20 | CC(C)C(=Nc1ccc(C#N)cc1)OCc1cccc(Oc2ccc(F)cc2)c1 [Compound 227] | 10 µg | 0.1% | 0.0015%
21 | CC(C)C(=Nc1cccc(Br)c1)OCc1cccc(Oc2ccc(F)cc2)c1 [Compound 229] | 20 µg | > 0.1% | 0.0005%
22 | Cc1ccc(Oc2cccc(COC(=Nc3ccc(F)cc3)C(C)C)c2)cc1 [Compound 231] | > 100 µg | > 0.1% | 0.003%
23 | CC(C)C(=Nc1c(F)c(F)c(F)c(F)c1F)OCc1cccc(Oc2ccc(F)cc2F)c1 [Compound 232] | > 100 µg | > 0.1% | 0.004%
24 | CC(C)C(=Nc1ccc(C(C)(C)C)cc1)OCc1cccc(Oc2ccc(F)cc2)c1 [Compound 235] | > 100 µg | > 0.1% | 0.004%
25 | Cc1cc(N=C(OCc2cccc(Oc3ccc(F)cc3)c2)C(C)C)ccc1F [Compound 236] | 7 µg | 0.06% | 0.0018%
26 | CC(C)C(=Nc1ccc(Cl)cc1)OCc1cccc(Oc2ccc(Br)cc2)c1 [Compound 237] | 50 µg | 0.075% | 0.0006%
27 | CC(C)C(=Nc1ccc2c(c1)OC(C)(C)O2)OCc1cccc(Oc2ccc(Cl)cc2)c1 [Compound 241] | > 100 µg | > 0.1% | 0.0004%
28 | CC(C)C(=Nc1ccc2c(c1)CCO2)OCc1cccc(Oc2ccccc2)c1 [Compound 243] | 9 µg | > 0.1% | 0.005%
29 | CC(C)C(=Nc1ccc2c(c1)OCO2)OCc1cccc(Oc2ccc(C(F)(F)F)cc2)c1 [Compound 246] | 60 µg | > 0.1% | 0.004%
30 | CC(C)C(=Nc1ccc(F)c(Cl)c1)OCc1cccc(Oc2ccc(C(F)(F)F)cc2)c1 [Compound 247] | > 100 µg | > 0.1% | 0.009%
31 | COc1cc(N=C(OCc2cccc(Oc3ccccc3)c2)C(C)C)cc(OC)c1OC [Compound 248] | 40 µg | > 0.1% | 0.02%
32 | Cc1cccc(N=C(OCc2cccc(Oc3ccccc3)c2)C(C)C)c1C [Compound 249] | 36 µg | 0.035% | 0.0025%
33 | Cc1ccc(C)c(N=C(OCc2cccc(Oc3ccccc3)c2)C(C)C)c1 [Compound 250] | 38 µg | 0.038% | 0.004%
34 | CC(C)C(=Nc1ccc(Br)c(Br)c1)OCc1cccc(Oc2ccc(F)cc2)c1 [Compound 251] | 25 µg | 0.06% | 0.0005%
35 | CC(C)C(=Nc1ccc(Br)c(Br)c1)OCc1cccc(Oc2ccccc2)c1 [Compound 252] | 34 µg | 0.04% | 0.0035%
36 | CC(C)C(=Nc1cccc(Cl)c1)OCc1cccc(Oc2ccc(Br)cc2)c1 [Compound 260] | 22 µg | > 0.1% | 0.00075%
37 | CCC(C)C(=Nc1ccc(F)c(Cl)c1)OCc1ccc(F)c(Oc2ccccc2)c1 (stereo not drawn) [Compound 261] | 24 µg | 0.05% | 0.001%
